Where “and” joins values, the source holds several entries; their conditions need not be identical. Equal values may be shown once. Where a name gives a salt, the structure may show the parent alone. Read-outs that look alike come from different tables or passages of the source. Residues, ends and D or L forms follow the SMILES beside them.
What was measured:
[1] = system: bovine gamma globulin (BGG)
[2] = Caffeine solubility testing with co-solutes at ambient temperature (Examples 32-33); settings: for Observation of caffeine dissolution: caffeine 80 mg/mL; for Dissolution of caffeine enabled relative to reported solubility limit: co-solute in water, ambient temperature (about 23 C)
Procedure: Prepared solutions were used either neat or diluted with deionized water.
A small magnetic stir bar was added to the vial, and the solution was allowed to mix vigorously on a stir plate for about 10 minutes.

[3] = system: bovine gamma globulin (BGG); experiment: Normalized viscosity of 280 mg/mL BGG in 20 mM histidine with excipients A/B (Example 20); format: physicochemical; settings: no B
Excerpt: Excipient compounds for this Example are listed below in Table 11.

[4] = system: bovine gamma globulin (BGG); experiment: Viscosity of 280 mg/mL BGG formulations in 50 mM histidine HCl pH 6 with excipient, cone and plate viscometer (Examples 1, 2, 4-6); format: physicochemical
[5] = Viscosity of PEG (Mw ~1,000,000) solution in Tris buffer with excipient (Examples 12-13); format: physicochemical

## CCCCn1cc[n+](C)c1.[Cl-] [1-butyl-3-methylimidazolium chloride]
[1]; excipient 100 mg/mL
  Viscosity Reduction: 52%

## CCCCn1cc[n+](C)c1.[I-] [1-butyl-3-methylimidazolium iodide]
[1]; excipient 60 mg/mL
  Viscosity Reduction: 34%

## CCCCCCn1cc[n+](C)c1.[Cl-] [1-hexyl-3-methylimidazolium chloride]
[1]; excipient 65 mg/mL
  Viscosity Reduction: 11%

## Cc1cc(C)nc(C)c1 [2,4,6-trimethylpyridine]
[1]; excipient 50 mg/mL
  Viscosity Reduction: 51%

## O=C1CCCN1 [2-Pyrrolidinone]
[1]; excipient 60 mg/mL
  Viscosity Reduction: 32%

## CC1=NCCN1.Cl [2-methyl-2-imidazoline HCl]
[1]; excipient 60 mg/mL
  Normalized Viscosity: 0.43
  Viscosity Reduction: 57%

## Nc1cccnc1 [3-aminopyridine]
[1]; excipient 50 mg/mL
  Viscosity Reduction: 49%

## CC1=CC(=O)NS(=O)(=O)O1 [Acesulfame K, acesulfame potassium]
[2]; co-solute 80 mg/mL
  Observation of caffeine dissolution: DND
[3]; excipient A 40 mg/mL
  Normalized Viscosity: 0.61
[3]; excipient A 80 mg/mL
  Normalized Viscosity: 0.44

## Nc1ncnc2c1ncn2[C@@H]1O[C@H](COP(=O)(O)O)[C@@H](O)[C@H]1O [Adenosine monophosphate]
[4]; excipient 26 mg/mL
  Viscosity: 47 cP
  Viscosity Reduction: 41%
[4]; excipient 50 mg/mL
  Viscosity: 66 cP
  Viscosity Reduction: 16%

## N=C(N)NCCCCN.O=S(=O)(O)O [Agmatine sulfate]
[1]; excipient 55 mg/mL
  Viscosity Reduction: 23%

## COC(=O)[C@H](Cc1ccccc1)NC(=O)[C@@H](N)CC(=O)O [Aspartame] (H-Asp-Phe-OMe)
[3]; excipient A 10 mg/mL
  Normalized Viscosity: 0.83

## O=C(O)CCCC[C@@H]1SC[C@@H]2NC(=O)N[C@@H]21 [Biotin]
[1]; excipient 20 mg/mL
  Viscosity Reduction: 31%

## O=C(O)[C@H](O)[C@@H](O)[C@H](O)[C@H](O)CO [D-Gluconic acid/K salt, D-Gluconic acid]
[5]; excipient 20 mg/mL
  Viscosity: 88.4 cP
  Viscosity Reduction: 16%
[5]; excipient 40 mg/mL
  Viscosity: 80.32 cP
  Viscosity Reduction: 23%

## O=C(O)[C@H](O)[C@@H](O)[C@H](O)[C@H](O)CO [D-Gluconic acid/Na salt, D-Gluconic acid]
[5]; excipient 20 mg/mL
  Viscosity: 86.6 cP
  Viscosity Reduction: 17%
[5]; excipient 40 mg/mL
  Viscosity: 81.24 cP
  Viscosity Reduction: 23%

## NC(C1CCCCC1)C1CCCCC1 [DCHMA-HCl, dicyclohexylmethylamine]
[4]; excipient 29 mg/mL
  Viscosity: 51 cP
  Viscosity Reduction: 35%
[4]; excipient 50 mg/mL
  Viscosity: 51 cP
  Viscosity Reduction: 35%

## CN(C)CCCN [DMAPA-HCl, dimethylaminopropylamine]
[4]; excipient 40 mg/mL
  Viscosity: 54 cP
  Viscosity Reduction: 32%
[4]; excipient 87 mg/mL
  Viscosity: 57 cP
  Viscosity Reduction: 28%

## CN(C)C1CCCCC1 [DMCHA-HCl, dimethylcyclohexylamine]
[1]; excipient 120 mg/mL
  Viscosity Reduction: 56%
[4]
  Viscosity: 35 cP
  Viscosity Reduction: 56%
[4]; excipient 28 mg/mL
  Viscosity: 50 cP
  Viscosity Reduction: 37%
[4]; excipient 41 mg/mL
  Viscosity: 43 cP
  Viscosity Reduction: 46%
[4]; excipient 50 mg/mL
  Viscosity: 45 cP
  Viscosity Reduction: 43%
[4]; excipient 82 mg/mL
  Viscosity: 36 cP
  Viscosity Reduction: 54%
[4]; excipient 164 mg/mL
  Viscosity: 40 cP
  Viscosity Reduction: 49%

## O=C(O)CN(CCN(CC(=O)O)CC(=O)O)CC(=O)O [EDTA/K salt, ethylenediaminetetraacetic acid (EDTA)]
[5]; excipient 20 mg/mL
  Viscosity: 76.9 cP
  Viscosity Reduction: 27%
[5]; excipient 40 mg/mL
  Viscosity: 67.1 cP
  Viscosity Reduction: 36%

## O=C(O)CN(CCN(CC(=O)O)CC(=O)O)CC(=O)O [EDTA/Na salt, ethylenediaminetetraacetic acid (EDTA)]
[5]; excipient 20 mg/mL
  Viscosity: 77.4 cP
  Viscosity Reduction: 26%
[5]; excipient 40 mg/mL
  Viscosity: 68.1 cP
  Viscosity Reduction: 35%

## NCCN [Ethylene diamine]
[5]; excipient 20 mg/mL
  Viscosity: 83.9 cP
  Viscosity Reduction: 15%
[5]; excipient 40 mg/mL
  Viscosity: 84.7 cP
  Viscosity Reduction: 17%

## Cl.NCCc1c[nH]cn1 [Histamine HCl]
[1]; excipient 50 mg/mL
  Viscosity Reduction: 59%

## c1c[nH]cn1 [Imidazole HCl]
[1]; excipient 100 mg/mL
  Viscosity Reduction: 57%

## NC(=O)c1ccncc1 [Isonicotinamide]
[1]; excipient 50 mg/mL
  Viscosity Reduction: 52%

## Cn1cncc1C[C@H](NC(=O)CCN)C(=O)O.O=[N+]([O-])O [L-Anserine nitrate]
[1]; excipient 50 mg/mL
  Viscosity Reduction: 21%

## C1COCCN1.Cl [Morpholine HCl]
[1]; excipient 50 mg/mL
  Viscosity Reduction: 40%

## CCN(CC)C(=O)c1cccnc1 [N,N-diethyl nicotinamide]
[1]; excipient 50 mg/mL
  Viscosity Reduction: 33%

## CN1CCCC1=O [N-Methyl-2-pyrrolidone]
[4]; excipient 30 mg/mL
  Viscosity: 45 cP
  Viscosity Reduction: 43%
[4]; excipient 52 mg/mL
  Viscosity: 52 cP
  Viscosity Reduction: 34%

## NC(=O)c1cccnc1 [Niacinamide]
[1]; excipient 50 mg/mL
  Viscosity Reduction: 49%
[4]; excipient 48 mg/mL
  Viscosity: 39 cP
  Viscosity Reduction: 51%
[2]; co-solute 30 mg/mL
  Observation of caffeine dissolution: DND

## O=C([O-])c1cccnc1.[Na+] [Nicotinic acid, sodium salt]
[1]; excipient 100 mg/mL
  Viscosity Reduction: 46%

## N=C(N)NCCS(=O)(=O)O [Product of Example 8, Guanyl taurine]
[4]; excipient 26 mg/mL
  Viscosity: 58 cP
  Viscosity Reduction: 27%
[4]; excipient 58 mg/mL
  Viscosity: 50 cP
  Viscosity Reduction: 37%
[4]; excipient 76 mg/mL
  Viscosity: 49 cP
  Viscosity Reduction: 38%
[4]; excipient 103 mg/mL
  Viscosity: 46 cP
  Viscosity Reduction: 42%
[4]; excipient 129 mg/mL
  Viscosity: 47 cP
  Viscosity Reduction: 41%
[4]; excipient 159 mg/mL
  Viscosity: 42 cP
  Viscosity Reduction: 47%
[4]; excipient 163 mg/mL
  Viscosity: 42 cP
  Viscosity Reduction: 47%

## O=C1NS(=O)(=O)c2ccccc21.[Na] [Saccharin, Na, saccharin sodium salt]
[2]; co-solute 45 mg/mL
  Observation of caffeine dissolution: DND
[2]
  Dissolution of caffeine enabled relative to reported solubility limit: at least about four times

## O=C1NS(=O)(=O)c2ccccc21 [Saccharin]
[3]; excipient A 30 mg/mL
  Normalized Viscosity: 0.58
[3]; excipient A 60 mg/mL
  Normalized Viscosity: 0.51

## O=C([O-])c1ccccc1.[Na+] [Sodium benzoate]
[4]; excipient 31 mg/mL
  Viscosity: 61 cP
  Viscosity Reduction: 23%
[4]; excipient 56 mg/mL
  Viscosity: 62 cP
  Viscosity Reduction: 22%

## O=C([O-])C(=O)Cc1ccccc1.[Na+] [Sodium phenylpyruvate]
[1]; excipient 55 mg/mL
  Viscosity Reduction: 43%

## O=C([O-])c1ccccc1O.[Na+] [Sodium salicylate]
[4]
  Viscosity: 57 cP and 52 cP

## Nc1ccc(S(=O)(=O)[O-])cc1.[Na+] [Sodium sulfanilate]
[4]; excipient 44 mg/mL
  Viscosity: 49 cP
  Viscosity Reduction: 38%
[4]; excipient 96 mg/mL
  Viscosity: 42 cP
  Viscosity Reduction: 47%

## Cn1c(=O)c2[nH]cnc2n(C)c1=O [Theophylline]
[3]; excipient A 10 mg/mL
  Normalized Viscosity: 0.84

## Cl.NCCc1ccc(O)cc1 [Tyramine HCl]
[1]; excipient 70 mg/mL
  Viscosity Reduction: 59%
[2]; co-solute 30 mg/mL
  Observation of caffeine dissolution: DND
[2]
  Dissolution of caffeine enabled relative to reported solubility limit: at least about four times

## COc1cc(C(=O)[O-])ccc1O.[Na+] [Vanillic acid, sodium salt]
[4]; excipient 25 mg/mL
  Viscosity: 56 cP
  Viscosity Reduction: 29%
[4]; excipient 50 mg/mL
  Viscosity: 50 cP
  Viscosity Reduction: 37%

## CC(O)(P(=O)(O)O)P(=O)(O)O [etidronic acid/K salt, etidronic acid]
[5]; excipient 12 mg/mL
  Viscosity: 80.5 cP
  Viscosity Reduction: 23%
[5]; excipient 24 mg/mL
  Viscosity: 71.91 cP
  Viscosity Reduction: 31%

## CC(O)(P(=O)(O)O)P(=O)(O)O [etidronic acid/Na salt, etidronic acid]
[5]; excipient 12 mg/mL
  Viscosity: 79.4 cP
  Viscosity Reduction: 24%
[5]; excipient 24 mg/mL
  Viscosity: 71.6 cP
  Viscosity Reduction: 32%

## O=P(O)(O)OCC(O)CO (centres unmarked) [glycerol phosphate]
[5]; excipient 20 mg/mL
  Viscosity: 83.9 cP
  Viscosity Reduction: 18%
[5]; excipient 40 mg/mL
  Viscosity: 71.7 cP
  Viscosity Reduction: 30%

## Arg-Arg [Dipeptide RR (Arg-Arg)]
[4]; excipient 50 mg/mL
  Viscosity: 57 cP
  Viscosity Reduction: 28%
[4]; excipient 100 mg/mL
  Viscosity: 62 cP
  Viscosity Reduction: 22%

## Arg-Glu [Dipeptide RE (Arg-Glu)]
[4]; excipient 50 mg/mL
  Viscosity: 50 cP
  Viscosity Reduction: 37%
[4]; excipient 100 mg/mL
  Viscosity: 66 cP
  Viscosity Reduction: 16%

## Arg-His [Dipeptide RH (Arg-His)]
[4]; excipient 50 mg/mL
  Viscosity: 52 cP
  Viscosity Reduction: 34%
[4]; excipient 100 mg/mL
  Viscosity: 72 cP
  Viscosity Reduction: 9%

## Arg-Lys [Dipeptide RK (Arg-Lys)]
[4]; excipient 50 mg/mL
  Viscosity: 53 cP
  Viscosity Reduction: 33%
[4]; excipient 100 mg/mL
  Viscosity: 64 cP
  Viscosity Reduction: 19%

## Arg-Pro [Dipeptide RP (Arg-Pro)]
[4]; excipient 50 mg/mL
  Viscosity: 51 cP
  Viscosity Reduction: 35%
[4]; excipient 100 mg/mL
  Viscosity: 53 cP
  Viscosity Reduction: 33%

## Leu-Glu [Dipeptide LE (Leu-Glu)]
[4]; excipient 50 mg/mL
  Viscosity: 72 cP
  Viscosity Reduction: 9%
[4]; excipient 100 mg/mL
  Viscosity: 87 cP
  Viscosity Reduction: −10%

## Trp2Lys3
[4]; excipient 50 mg/mL
  Viscosity: 60 cP
  Viscosity Reduction: 24%
[4]; excipient 100 mg/mL
  Viscosity: 59 cP
  Viscosity Reduction: 25%

## Tyr-Glu [Dipeptide YE (Tyr-Glu)]
[4]; excipient 50 mg/mL
  Viscosity: 55 cP
  Viscosity Reduction: 30%
[4]; excipient 100 mg/mL
  Viscosity: 68 cP
  Viscosity Reduction: 14%

## dimethylcyclohexylammonium hydroxybenzoate [DMCHA-hydroxybenzoate]
[4]; excipient 67 mg/mL
  Viscosity: 46 cP
  Viscosity Reduction: 42%
[4]; excipient 92 mg/mL
  Viscosity: 42 cP
  Viscosity Reduction: 47%
